Results as given in article PMC6297231 (Nature Communications, 2018).

What was measured:
[1] = tested on: G361; assay: cells; details: Homo sapiens, G-361, 6 h, read-out: AZD5991 6h EC50
Outline: (§1)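 Cells were seeded at 3000 cells/well in their respective growth media and treated with compound. Caspase-3/7 activation was read by Caspase-Glo 3/7 luminescence and viability by CellTiter-Glo; EC50 and GI50 came from dose–response curves. Caspase activation is expressed relative to a cell-kill control set at 100%.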

[2] = tested on: EOL1; assay: cells; details: Homo sapiens, EOL1, 6 h, read-out: AZD5991 6h EC50
Outline: as §1

[3] = tested on: RT4; assay: cells; details: Homo sapiens, RT-4, 6 h, read-out: AZD5991 6h EC50
Outline: as §1

[4] = tested on: OCILY10; assay: cells; details: Homo sapiens, OCI-Ly10, 6 h, read-out: AZD5991 6h EC50
Outline: as §1

[5] = tested on: RI1; assay: cells; details: Ri-1, 6 h, read-out: AZD5991 6h EC50
Outline: as §1

[6] = tested on: H1734; assay: cells; details: Homo sapiens, NCI-H1734, 6 h, read-out: AZD5991 6h EC50
Outline: as §1

[7] = tested on: OE21; assay: cells; details: OE21, 6 h, read-out: AZD5991 6h EC50
Outline: as §1

[8] = tested on: A253; assay: cells; details: Homo sapiens, A253, 6 h, read-out: AZD5991 6h EC50
Outline: as §1

[9] = tested on: KMS12PE; assay: cells; details: Homo sapiens, KMS-12-PE, 6 h, read-out: AZD5991 6h EC50
Outline: as §1

[10] = tested on: MDAMB468; assay: cells; details: Homo sapiens, MDA-MB-468, 6 h, read-out: AZD5991 6h EC50
Outline: as §1

[11] = tested on: KMS26; assay: cells; details: KMS-26, 6 h, read-out: AZD5991 6h EC50
Outline: as §1

[12] = tested on: Daudi; assay: cells; details: Homo sapiens, 6 h, read-out: AZD5991 6h EC50
Outline: as §1

[13] = tested on: H1048; assay: cells; details: Homo sapiens, NCI-H1048, 6 h, read-out: AZD5991 6h EC50
Outline: as §1

[14] = tested on: DMS114; assay: cells; details: Homo sapiens, DMS-114, 6 h, read-out: AZD5991 6h EC50
Outline: as §1

[15] = tested on: PL21; assay: cells; details: PL-21, 6 h, read-out: AZD5991 6h EC50
Outline: as §1

[16] = tested on: H446; assay: cells; details: Homo sapiens, NCI-H446, 6 h, read-out: AZD5991 6h EC50
Outline: as §1

[17] = tested on: MCF7; assay: cells; details: Homo sapiens, MCF7, 6 h, read-out: AZD5991 6h EC50
Outline: as §1

[18] = tested on: H2286; assay: cells; details: Homo sapiens, NCI-H2286, 6 h, read-out: AZD5991 6h EC50
Outline: as §1

[19] = tested on: OPM2; assay: cells; details: Homo sapiens, OPM-2, 6 h, read-out: AZD5991 6h EC50
Outline: as §1

[20] = tested on: Toledo; assay: cells; details: Homo sapiens, 6 h, read-out: AZD5991 6h EC50
Outline: as §1

[21] = tested on: H1975; assay: cells; details: Homo sapiens, NCI-H1975, 6 h, read-out: AZD5991 6h EC50
Outline: as §1

[22] = tested on: SKBR3; assay: cells; details: Homo sapiens, SK-BR-3, 6 h, read-out: AZD5991 6h EC50
Outline: as §1

[23] = tested on: Colo205; assay: cells; details: Homo sapiens, COLO 205, 6 h, read-out: AZD5991 6h EC50
Outline: as §1

[24] = tested on: H1703; assay: cells; details: Homo sapiens, NCI-H1703, 6 h, read-out: AZD5991 6h EC50
Outline: as §1

[25] = tested on: EJM; assay: cells; details: Homo sapiens, 6 h, read-out: AZD5991 6h EC50
Outline: as §1

[26] = tested on: 5637; assay: cells; details: 6 h, read-out: AZD5991 6h EC50
Outline: as §1

[27] = tested on: H82; assay: cells; details: Homo sapiens, NCI-H82, 6 h, read-out: AZD5991 6h EC50
Outline: as §1

[28] = tested on: BT20; assay: cells; details: Homo sapiens, BT-20, 6 h, read-out: AZD5991 6h EC50
Outline: as §1

[29] = tested on: OCIAML2; assay: Cell viability assay; type: cell-based; details: Homo sapiens, OCI-AML2, 24 h; OCIAML2 (AML); read-out: AZD5991 24h GI50
Protocol: (§2) Cells were plated at 3000 cells/well in 384-well white plates in corresponding cell growth media. […] Caspase-3/7 activation was subsequently determined using a Caspase-Glo 3/7 Reagent (Promega) and viability was assayed using the CellTiter-Glo Reagent (Promega) as described in manufacturer’s instructions. Dose–response curves for caspase-3/7 activation and viability were plotted and analyzed (including EC50 and GI50 determination) using GraphPad Prism.

[30] = tested on: WSUNHL; assay: Cell viability assay; type: cell-based; details: Homo sapiens, WSU-NHL, 24 h, read-out: AZD5991 24h GI50
Protocol: as §2

[31] = tested on: Sudhl16; assay: Cell viability assay; type: cell-based; details: Homo sapiens, SU-DHL-16, 24 h; Sudhl16 (NHL); read-out: AZD5991 24h GI50
Protocol: as §2

[32] = tested on: OPM2; assay: Cell viability assay; type: cell-based; details: Homo sapiens, OPM-2, 24 h; OPM2 (MM); read-out: AZD5991 24h GI50
Protocol: as §2

[33] = tested on: H1568; assay: Cell viability assay; type: cell-based; details: NCI-H1568, 24 h; H1568 (Lung); read-out: AZD5991 24h GI50
Protocol: as §2

[34] = tested on: KMS11; assay: Cell viability assay; type: cell-based; details: Homo sapiens, KMS-11, 24 h; KMS11 (MM); read-out: AZD5991 24h GI50
Protocol: as §2

`Cc1c2c(nn1C)CSCc1cc(n(C)n1)CSc1cc(c3ccccc3c1)OCCCc1c(C(=O)O)n(C)c3c-2c(Cl)ccc13` (atropisomer, axis not shown; (Ra)) [(Ra)-7] showed an EC50 [1] of 2440 nM, an EC50 [2] of 13 nM and an EC50 [3] of 18.1 µM. For the same compound, the EC50 [4] was 117 nM, the EC50 [5] was greater than 30 µM and the EC50 [6] was 20.1 µM. For the same compound, the EC50 [7] was 187 nM, the EC50 [8] was greater than 30 µM and the EC50 [9] was 383 nM. For the same compound, the EC50 [10] was greater than 30 µM, the EC50 [11] was 144 nM and the EC50 [12] was 16.1 µM. The EC50 [13] was greater than 30 µM, the EC50 [14] was 290 nM and the EC50 [15] was 409 nM. The EC50 [16] was greater than 30 µM, the EC50 [17] was 313 nM and the EC50 [18] was greater than 30 µM. The EC50 [19] was 59 nM, the EC50 [20] was 1260 nM and the EC50 [21] was greater than 30 µM. The EC50 [22] was greater than 30 µM, the EC50 [23] was 121 nM and the EC50 [24] was 801 nM. The EC50 [25] was 169 nM, the EC50 [26] was 107 nM and the EC50 [27] was 201 nM. The EC50 [28] was greater than 30 µM, the GI50 [29] was 295 nM and the GI50 [30] was 221 nM. For the same compound, the GI50 [31] was 119 nM, the GI50 [32] was 57 nM and the GI50 [33] was 272 nM. The GI50 [34] was 540 nM.
